# Several values for one entry are separate records, joined by “and”; a condition that tells them apart may be missing. Equal values may be shown once.
# Assays:
# [1] = tested on: receptors coupled to Gi proteins expressed on osteoblasts; test: Cellular Dielectric Spectroscopy (CDS, CELLKEY) response to Gi-coupled receptor ligands in osteoblasts from control and AIS subjects; format: cell-based, human; parameters: % of control / % of control signal, Group 1, min diff. / % of control signal, Group 2, min diff. / % of control signal, Group 3, min diff.: concentration or dose not given beside the values; dZiec value / Absolute dZiec, control value of max diff. (maximal control value): unit not given here; settings: for dZiec value: n1, n2 of Exper. 1-3
# [2] = tested on: Gi protein-mediated pathway in MG63 osteoblast cell line; format: cell-based; settings: 100 ng/mL PTX 16 h, stimulation with 10 μM ligand, 37° C., 5 min
# Protocol: The ability of CDS to detect the relative part of the Gi protein-mediated pathway in melatonin signaling was determined by blocking this pathway with pertussis toxin (PTX). This toxin ADP-ribosylates the a subunit of the heterotrimeric Gi protein and thereby prevents its activity. The MG63 osteoblast cell line was serum-starved for 16 h in the absence or presence of 100 ng/mL of PTX to inhibit the αi subunit of Gi protein. […] Cellular responses were measured with CELLKEY™ label-free cellular analysis system as described in the Material and Methods section.
# [3] = tested on: melatonin signaling in osteoblasts; test: cAMP assay in forskolin pre-treated osteoblasts; format: cell-based, human; settings: osteoblasts from IS patients; increasing concentration of melatonin; FIG. 2
# Protocol: Osteoblasts from patients with IS and control subjects were seeded in quadruplicate on 24-well plates (1×10^5 cells per well) and tested as previously described (Moreau A, Wang D S, Forget S et al. Melatonin Signaling Dysfunction in Adolescent Idiopathic Scoliosis. Spine 2004; 29:1772-81). All assays were performed in duplicate.
# Cells were then challenged with increasing concentration of melatonin and the functional status of melatonin signaling was estimated by the ability of melatonin to reduce cAMP levels. Data were normalized with cAMP production induced by forskolin in the absence of melatonin. […] Furthermore, the extent of this production was different between the three IS patients.
# [4] = osteoblasts of control subjects, 300 μM ligand, from FIGS. 11A-11F
structure (smiles),measurement,setting,value
"COc1ccc2[nH]cc(CCNC(C)=O)c2c1 [Melatonin, melatonin]","CDS response, dependence on concentration","[1]; osteoblasts from both control and IS patients, FIGS. 4A-4C",concentration-dependent manner
same,% of control,[1]; osteoblasts of AIS#1020 (Group 3) relative to CTR#60,52.6% and 59.8% and 63.3% and 58.1% and 58% and 59.2%
same,dZiec value,"[1]; osteoblasts of AIS#1020 (Group 3), 300 μM ligand",29.38 and 31.88 and 40.33 and 39.33 and 34.34 and 36.12
same,% of control,[1]; osteoblasts of AIS#1198 (Group 3 in Table II) relative to CTR#69,39.3% and 42.7% and 35.6% and 27.7% and 33.3% and 34.7%
same,dZiec value,"[1]; osteoblasts of AIS#1198 (Group 3 in Table II), 300 μM ligand",23.94 and 31.44 and 31.91 and 25.91 and 27.41 and 29.19
same,% of control,[1]; osteoblasts of AIS#1468 (Group 3) relative to CTR#61,65.3% and 70% and 67.8% and 64.6% and 66.4% and 67.2%
same,dZiec value,"[1]; osteoblasts of AIS#1468 (Group 3), 300 μM ligand",44.92 and 46.42 and 54.79 and 49.34 and 51.12
same,% of control,[1]; osteoblasts of AIS#1474 (Group 1) relative to CTR#60,29.6% and 24.4% and 23.8% and 22.4% and 29.3% and 26.4%
same,dZiec value,"[1]; osteoblasts of AIS#1474 (Group 1), 300 μM ligand",16.53 and 13.03 and 15.18 and 17.34 and 16.12
same,% of control,[1]; osteoblasts of AIS#1488 (Group 1) relative to CTR#69,12.9% and 15.3% and 12.2% and 11.7% and 15% and 14.4%
same,dZiec value,"[1]; osteoblasts of AIS#1488 (Group 1), 300 μM ligand",9.79 and 11.29 and 10.91 and 12.34 and 12.12
same,% of control,[1]; osteoblasts of AIS#1513 (Group 3) relative to CTR#61,56.5% and 59.4% and 62.9% and 61.1% and 59.7% and 60.6%
same,dZiec value,"[1]; osteoblasts of AIS#1513 (Group 3), 300 μM ligand",38.90 and 39.40 and 50.81 and 51.81 and 44.34 and 46.12
same,% of control,[1]; osteoblasts of AIS#1549 (Group 1) relative to CTR#61,25.1% and 25.3% and 22.8% and 24.1% and 23.3%
same,dZiec value,"[1]; osteoblasts of AIS#1549 (Group 1), 300 μM ligand",17.30 and 16.80 and 18.41 and 20.41 and 17.34 and 19.12
same,% of control,[1]; osteoblasts of AIS#1550 (Group 2) relative to CTR#60,50.7% and 57.7% and 46.2% and 47.9% and 49.5% and 51%
same,dZiec value,"[1]; osteoblasts of AIS#1550 (Group 2), 300 μM ligand",28.28 and 30.78 and 29.43 and 32.43 and 29.34 and 31.12
same,dZiec value,"[1]; osteoblasts of control CTR#60, 300 μM ligand",55.81/— and 53.31/— and 63.72/— and 67.72/— and 59.25/— and 61.03/—
same,dZiec value,"[1]; osteoblasts of control CTR#61, 300 μM ligand",68.79/— and 66.29/— and 80.84/— and 84.84/— and 74.30/— and 76.08/—
same,dZiec value,"[1]; osteoblasts of control CTR#69, 300 μM ligand",76.12/— and 73.62/— and 89.58/— and 93.58/— and 82.34/— and 84.12/—
same,"Absolute dZiec, control value of max diff. (maximal control value)",[1]; [4],83
same,"Absolute dZiec, control value of min diff. (minimal control value)",[1]; [4],60
same,"Absolute dZiec, Group 1, max diff. (group value)","[1]; osteoblasts, AIS Group 1 value of max diff., 300 μM ligand, from FIGS. 11A-11F",11
same,"Absolute dZiec, Group 1, min diff. (group value)","[1]; osteoblasts, AIS Group 1 value of min diff., 300 μM ligand, from FIGS. 11A-11F",18
same,"% of control signal, Group 1, max diff.","[1]; osteoblasts, AIS Group 1 vs maximal control value",13%
same,"% of control signal, Group 1, min diff.","[1]; osteoblasts, AIS Group 1 vs minimal control value",30%
same,"Absolute dZiec, Group 2, max diff. (group value)","[1]; osteoblasts, AIS Group 2 value of max diff., 300 μM ligand, from FIGS. 11A-11F",28
same,"Absolute dZiec, Group 2, min diff. (group value)","[1]; osteoblasts, AIS Group 2 value of min diff., 300 μM ligand, from FIGS. 11A-11F",37
same,"% of control signal, Group 2, max diff.","[1]; osteoblasts, AIS Group 2 vs maximal control value",34%
same,"% of control signal, Group 2, min diff.","[1]; osteoblasts, AIS Group 2 vs minimal control value",62%
same,"Absolute dZiec, Group 3, max diff. (group value)","[1]; osteoblasts, AIS Group 3 value of max diff., 300 μM ligand, from FIGS. 11A-11F",45
same,"Absolute dZiec, Group 3, min diff. (group value)","[1]; osteoblasts, AIS Group 3 value of min diff., 300 μM ligand, from FIGS. 11A-11F",50
same,"% of control signal, Group 3, max diff.","[1]; osteoblasts, AIS Group 3 vs maximal control value",54%
same,"% of control signal, Group 3, min diff.","[1]; osteoblasts, AIS Group 3 vs minimal control value",83%
same,magnitude of CDS response in IS osteoblasts vs control,"[1]; osteoblasts, FIGS. 4A-4C",significantly lower
same,inhibition extent of the CDS response by PTX treatment,[2],about 75%
same,"cAMP production after forskolin stimulation, IS vs healthy control osteoblasts",[3],high cAMP production

# — patent publication US10620222B2, “Electrified compositions for determining the risk of developing adolescent idiopathic scoliosis through the use of GI protein receptor” (CHU Sainte-Justine, priority 2008, dated 2020)
